Columns and labels:
[1] = target: T1, HiBit-BRG1 fusion protein in stable HeLa cell line expressing HiBit-BRG1 and LgBit (Homo sapiens, UniProt P51532); experiment: HiBiT-BRG1 cell-based degradation assay (Nano-Glo HiBiT, 24 h); settings: HeLa HiBit-BRG1/LgBit cells; for Dmax: top dose 30 μM, read-out: BRG1 HiBit Degradation Maximum (%); for DC50: read-out: BRMG1 HiBit Degradation IC50
T1 construct: expressed in transfected cells
How it was run: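 Degradation calculated from NanoBiT luminescence relative to DMSO-treated cells (high) and cells given 2 μM known BRM/BRG1 degrader (low). HeLa cells stably expressing HiBiT-BRG1 plus LgBiT were exposed to compound for 24 h before lytic HiBiT detection.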

[2] = target: T2, HiBiT-BRM fusion protein in stable HeLa cell line (Homo sapiens, UniProt P51531); experiment: HiBiT-BRM cell-based degradation assay (Nano-Glo HiBiT Lytic Detection, 24 h); set-up: DC50: scale not given here; settings: HeLa HiBiT-BRM cells; for DC50: read-out: BRM HiBit Degradation IC50; for BRM HiBit Degradation Maximum (%): top dose 30 μM
T2 construct: expressed in transfected cells
T2 sequence (P51531 whole entry, the tested form may be a part): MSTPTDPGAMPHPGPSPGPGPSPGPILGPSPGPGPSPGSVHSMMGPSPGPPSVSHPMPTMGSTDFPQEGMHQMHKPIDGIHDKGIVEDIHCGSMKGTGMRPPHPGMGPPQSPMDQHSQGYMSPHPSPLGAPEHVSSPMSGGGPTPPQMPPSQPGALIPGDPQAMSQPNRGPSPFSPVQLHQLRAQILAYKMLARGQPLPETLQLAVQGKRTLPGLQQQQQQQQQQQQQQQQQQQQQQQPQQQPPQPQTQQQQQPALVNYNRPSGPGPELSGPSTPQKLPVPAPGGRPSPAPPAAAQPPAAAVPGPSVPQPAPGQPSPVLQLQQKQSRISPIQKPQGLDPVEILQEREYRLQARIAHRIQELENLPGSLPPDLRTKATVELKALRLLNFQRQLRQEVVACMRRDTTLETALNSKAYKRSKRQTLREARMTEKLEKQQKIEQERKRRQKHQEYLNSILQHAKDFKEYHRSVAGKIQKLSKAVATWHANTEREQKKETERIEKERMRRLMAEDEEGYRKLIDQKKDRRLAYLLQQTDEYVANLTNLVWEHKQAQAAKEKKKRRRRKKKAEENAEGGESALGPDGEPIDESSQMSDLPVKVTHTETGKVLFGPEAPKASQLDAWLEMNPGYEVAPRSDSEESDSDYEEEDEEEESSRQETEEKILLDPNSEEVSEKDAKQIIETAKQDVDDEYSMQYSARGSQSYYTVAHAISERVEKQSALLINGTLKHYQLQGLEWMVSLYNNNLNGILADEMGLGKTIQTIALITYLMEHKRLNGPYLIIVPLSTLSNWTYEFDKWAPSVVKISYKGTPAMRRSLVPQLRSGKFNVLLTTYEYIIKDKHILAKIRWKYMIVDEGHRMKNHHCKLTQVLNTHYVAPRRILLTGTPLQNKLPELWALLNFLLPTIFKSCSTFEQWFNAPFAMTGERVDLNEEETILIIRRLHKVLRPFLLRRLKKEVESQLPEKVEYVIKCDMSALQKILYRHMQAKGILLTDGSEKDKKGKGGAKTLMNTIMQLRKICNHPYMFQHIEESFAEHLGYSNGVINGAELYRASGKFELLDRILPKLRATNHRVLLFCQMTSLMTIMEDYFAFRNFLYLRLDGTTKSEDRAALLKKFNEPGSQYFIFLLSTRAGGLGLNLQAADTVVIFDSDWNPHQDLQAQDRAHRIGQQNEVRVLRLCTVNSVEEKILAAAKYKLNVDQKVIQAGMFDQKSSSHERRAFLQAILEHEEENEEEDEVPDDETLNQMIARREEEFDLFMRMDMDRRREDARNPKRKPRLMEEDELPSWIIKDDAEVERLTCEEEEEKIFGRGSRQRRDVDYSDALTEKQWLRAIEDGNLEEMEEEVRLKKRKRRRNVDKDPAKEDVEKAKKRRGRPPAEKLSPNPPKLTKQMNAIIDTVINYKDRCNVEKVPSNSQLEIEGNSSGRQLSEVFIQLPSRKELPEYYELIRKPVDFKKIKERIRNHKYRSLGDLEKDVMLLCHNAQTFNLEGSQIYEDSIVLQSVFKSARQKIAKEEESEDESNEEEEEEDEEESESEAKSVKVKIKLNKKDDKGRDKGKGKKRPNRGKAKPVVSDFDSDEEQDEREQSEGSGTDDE
How it was run: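 HeLa stably expressing HiBiT-BRM; 24 h compound exposure, 10-pt 3-fold dilution from 30 μM final, duplicates. Lytic LgBiT complementation, luminescence. % degradation vs DMSO (HC) and 2 μM known BRM/BRG1 degrader (LC).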

T1 sequence (P51532 whole entry, the tested form may be a part): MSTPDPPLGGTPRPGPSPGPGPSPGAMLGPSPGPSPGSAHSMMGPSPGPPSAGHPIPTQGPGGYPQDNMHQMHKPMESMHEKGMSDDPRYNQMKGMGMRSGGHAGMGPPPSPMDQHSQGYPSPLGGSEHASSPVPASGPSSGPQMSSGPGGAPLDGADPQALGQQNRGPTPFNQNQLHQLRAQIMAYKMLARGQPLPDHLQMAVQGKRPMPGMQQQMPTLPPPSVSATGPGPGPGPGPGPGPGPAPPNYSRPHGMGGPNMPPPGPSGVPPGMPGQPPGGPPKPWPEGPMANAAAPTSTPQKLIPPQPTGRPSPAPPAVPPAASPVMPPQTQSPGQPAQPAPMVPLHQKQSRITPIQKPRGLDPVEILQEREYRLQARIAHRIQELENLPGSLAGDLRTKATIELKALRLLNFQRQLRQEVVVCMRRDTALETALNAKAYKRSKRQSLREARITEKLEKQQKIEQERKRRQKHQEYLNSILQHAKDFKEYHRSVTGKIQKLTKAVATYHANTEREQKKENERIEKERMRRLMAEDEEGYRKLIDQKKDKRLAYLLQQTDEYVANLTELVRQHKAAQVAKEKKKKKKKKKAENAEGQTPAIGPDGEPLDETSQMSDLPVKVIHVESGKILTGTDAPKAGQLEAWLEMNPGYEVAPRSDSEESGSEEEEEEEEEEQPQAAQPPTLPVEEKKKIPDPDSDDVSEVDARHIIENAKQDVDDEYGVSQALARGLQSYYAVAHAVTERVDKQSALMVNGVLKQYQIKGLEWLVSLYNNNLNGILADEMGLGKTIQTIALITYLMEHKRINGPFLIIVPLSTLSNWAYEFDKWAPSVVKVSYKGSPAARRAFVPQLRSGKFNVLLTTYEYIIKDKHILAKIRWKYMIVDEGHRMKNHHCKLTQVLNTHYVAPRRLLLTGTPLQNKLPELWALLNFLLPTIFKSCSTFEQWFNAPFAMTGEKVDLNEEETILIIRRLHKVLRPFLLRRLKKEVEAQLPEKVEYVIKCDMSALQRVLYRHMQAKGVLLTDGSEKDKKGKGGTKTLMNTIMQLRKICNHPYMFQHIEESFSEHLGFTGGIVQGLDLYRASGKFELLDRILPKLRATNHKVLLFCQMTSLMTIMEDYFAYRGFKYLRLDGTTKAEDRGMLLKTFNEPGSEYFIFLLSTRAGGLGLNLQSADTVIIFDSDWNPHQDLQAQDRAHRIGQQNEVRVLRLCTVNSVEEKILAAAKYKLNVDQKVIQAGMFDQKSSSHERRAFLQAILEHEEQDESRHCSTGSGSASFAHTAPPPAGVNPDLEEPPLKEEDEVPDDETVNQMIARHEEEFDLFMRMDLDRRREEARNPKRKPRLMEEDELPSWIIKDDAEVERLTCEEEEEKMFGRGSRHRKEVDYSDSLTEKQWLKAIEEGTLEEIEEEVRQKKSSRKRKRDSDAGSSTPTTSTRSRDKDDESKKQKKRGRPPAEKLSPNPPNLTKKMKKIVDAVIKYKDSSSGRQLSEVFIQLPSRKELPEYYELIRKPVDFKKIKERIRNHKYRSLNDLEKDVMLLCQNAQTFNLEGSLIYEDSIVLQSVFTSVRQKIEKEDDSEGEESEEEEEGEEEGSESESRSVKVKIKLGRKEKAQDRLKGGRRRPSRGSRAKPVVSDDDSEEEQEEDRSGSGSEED

SMILES | Dmax [1] | DC50 [2] | DC50 [1] | BRM HiBit Degradation Maximum (%) [2]
Cc1ncsc1-c1ccc([C@H](C)NC(=O)[C@H]2C[C@H](O)CN2C(=O)C(c2cc(N3C[C@@H]4C[C@H]3CN4c3ccc4cc(-c5ccccc5O)nnc4c3)no2)C(C)C)cc1 (stereo partly drawn) [Compound 224, (2R,4S)-4-hydroxy-1-(2-(3-((1S,4S)-5-(3-(2-hydroxyphenyl)cinnolin-7-yl)-2,5-diazabicyclo[2.2.1]heptan-2-yl)isoxazol-5-yl)-3-methylbutanoyl)-N-((S)-1-(4-(4-methylthiazol-5-yl)phenyl)ethyl)pyrrolidine-2-carboxamide] | > 75% | < 10 nM | > 10 nM | A (“A” indicates maximum degradation ≥75%)
Cc1ncsc1-c1ccc([C@H](C)NC(=O)[C@@H]2C[C@@H](O)CN2C(=O)C(c2cc(N3C[C@@H]4CN(c5ccc6cc(-c7ccccc7O)nnc6c5)C[C@H]4C3)no2)C(C)C)cc1 (stereo partly drawn) [Compound 226, (2S,4R)-4-hydroxy-1-(2-(3-((3aS,6aS)-5-(3-(2-hydroxyphenyl)cinnolin-7-yl)hexahydropyrrolo[3,4-c]pyrrol-2(1H)-yl)isoxazol-5-yl)-3-methylbutanoyl)-N-((S)-1-(4-(4-methylthiazol-5-yl)phenyl)ethyl)pyrrolidine-2-carboxamide] | < 50% | > 10 nM |  | A (“A” indicates maximum degradation ≥75%)
CC(C)[C@@H](C(=O)N1C[C@H](O)C[C@H]1C(=O)N[C@@H](C)c1ccc(F)cc1)c1cc(N2CC3(CC(c4cc5nnc(-c6ccccc6O)cc5cc4C#N)C3)C2)no1 [Compound 227, (2S,4R)-1-((R)-2-(3-(6-(6-cyano-3-(2-hydroxyphenyl)cinnolin-7-yl)-2-azaspiro[3.3]heptan-2-yl)isoxazol-5-yl)-3-methylbutanoyl)-N-((S)-1-(4-fluorophenyl)ethyl)-4-hydroxypyrrolidine-2-carboxamide] | > 50% | > 100 nM | > 100 nM | A (“A” indicates maximum degradation ≥75%)
Cc1ncsc1-c1ccc([C@H](C)NC(=O)[C@@H]2C[C@@H](O)CN2C(=O)[C@@H](c2cc(N3CC4=C(CN(c5ccc6nnc(-c7ccccc7O)cc6c5)C4)C3)no2)C(C)C)cc1 [Compound 229, (2S,4R)-4-hydroxy-1-((R)-2-(3-(5-(3-(2-hydroxyphenyl)cinnolin-6-yl)-3,4,5,6-tetrahydropyrrolo[3,4-c]pyrrol-2(1H)-yl)isoxazol-5-yl)-3-methylbutanoyl)-N-((S)-1-(4-(4-methylthiazol-5-yl)phenyl)ethyl)pyrrolidine-2-carboxamide] | > 75% | < 10 nM | < 10 nM | A (“A” indicates maximum degradation ≥75%)
Cc1ncsc1-c1ccc([C@H](C)NC(=O)[C@@H]2C[C@@H](O)CN2C(=O)[C@H](C(C)C)n2cc(C3CC4(CC(c5ccc6nnc(-c7ccccc7O)cc6c5)C4)C3)nn2)cc1 (stereo partly drawn) [Compound 230, (2S,4R)-4-hydroxy-1-((S)-2-(4-(6-(3-(2-hydroxyphenyl)cinnolin-6-yl)spiro[3.3]heptan-2-yl)-1H-1,2,3-triazol-1-yl)-3-methylbutanoyl)-N-((S)-1-(4-(4-methylthiazol-5-yl)phenyl)ethyl)pyrrolidine-2-carboxamide] | > 75% | < 10 nM | > 10 nM | A (“A” indicates maximum degradation ≥75%)
Cc1ncsc1-c1ccc([C@H](C)NC(=O)[C@@H]2C[C@@H](O)CN2C(=O)[C@@H](c2cc(N3CC4(CN(Cc5ccc6cc(-c7ccccc7O)nnc6c5)C4)C3)no2)C(C)C)cc1 [Compound 232, (2S,4R)-4-hydroxy-1-((R)-2-(3-(6-((3-(2-hydroxyphenyl)cinnolin-7-yl)methyl)-2,6-diazaspiro[3.3]heptan-2-yl)isoxazol-5-yl)-3-methylbutanoyl)-N-((S)-1-(4-(4-methylthiazol-5-yl)phenyl)ethyl)pyrrolidine-2-carboxamide] | < 50% | > 10 nM |  | A (“A” indicates maximum degradation ≥75%)
Cc1ncsc1-c1ccc([C@H](C)NC(=O)[C@@H]2C[C@@H](O)CN2C(=O)C(C(C)C)n2cc(N3CCC4(CCN(c5ccc6cc(-c7ccccc7O)nnc6c5)CC4)C3)nn2)cc1 (stereo partly drawn) [Compound 233, (2S,4R)-4-hydroxy-1-(2-(4-(8-(3-(2-hydroxyphenyl)cinnolin-7-yl)-2,8-diazaspiro[4.5]decan-2-yl)-1H-1,2,3-triazol-1-yl)-3-methylbutanoyl)-N-((S)-1-(4-(4-methylthiazol-5-yl)phenyl)ethyl)pyrrolidine-2-carboxamide] | > 75% | < 10 nM | < 10 nM | A (“A” indicates maximum degradation ≥75%)
Cc1ncsc1-c1ccc([C@H](C)NC(=O)[C@@H]2C[C@@H](O)CN2C(=O)C(C(C)C)n2cc(N3CCC4(CC3)CCN4c3ccc4cc(-c5ccccc5O)nnc4c3)nn2)cc1 (stereo partly drawn) [Compound 234, (2S,4R)-4-hydroxy-1-(2-(4-(1-(3-(2-hydroxyphenyl)cinnolin-7-yl)-1,7-diazaspiro[3.5]nonan-7-yl)-1H-1,2,3-triazol-1-yl)-3-methylbutanoyl)-N-((S)-1-(4-(4-methylthiazol-5-yl)phenyl)ethyl)pyrrolidine-2-carboxamide] | > 50% | < 10 nM | > 10 nM | A (“A” indicates maximum degradation ≥75%)
Cc1ncsc1-c1ccc([C@H](C)NC(=O)[C@@H]2C[C@@H](O)CN2C(=O)C(C(C)C)n2cc(N3CCC(C4CN(c5ccc6cc(-c7ccccc7O)nnc6c5)C4)C3)nn2)cc1 (stereo partly drawn) [Compound 235, (2S,4R)-4-hydroxy-1-(2-(4-(3-(1-(3-(2-hydroxyphenyl)cinnolin-7-yl)azetidin-3-yl)pyrrolidin-1-yl)-1H-1,2,3-triazol-1-yl)-3-methylbutanoyl)-N-((S)-1-(4-(4-methylthiazol-5-yl)phenyl)ethyl)pyrrolidine-2-carboxamide] | > 75% | < 10 nM | > 10 nM | A (“A” indicates maximum degradation ≥75%)

Continued, in another order:

Dmax [1] | DC50 [2] | DC50 [1] | SMILES | BRM HiBit Degradation Maximum (%) [2]
< 50% | < 10 nM |  | Cc1ncsc1-c1ccc([C@H](C)NC(=O)[C@@H]2C[C@@H](O)CN2C(=O)[C@@H](c2cc(N3CC4(CC(c5cc6nnc(-c7ccccc7O)cc6cc5C#N)C4)C3)no2)C(C)C)cc1 [Compound 222, (2S,4R)-1-((R)-2-(3-(6-(6-cyano-3-(2-hydroxyphenyl)cinnolin-7-yl)-2-azaspiro[3.3]heptan-2-yl)isoxazol-5-yl)-3-methylbutanoyl)-4-hydroxy-N-((S)-1-(4-(4-methylthiazol-5-yl)phenyl)ethyl)pyrrolidine-2-carboxamide] | A (“A” indicates maximum degradation ≥75%)
> 50% | < 10 nM |  | C#Cc1ccc(CNC(=O)[C@@H]2C[C@@H](O)CN2C(=O)[C@H](C(C)C)n2cc(N3CC4(CN(c5ccc6cc(-c7ccccc7O)nnc6c5)C4)C3)nn2)c(Cl)c1 [Compound 223, (2S,4R)—N-[(2-chloro-4-ethynylphenyl)methyl]-4-hydroxy-1-[(2S)-2-(4-{6-[3-(2-hydroxyphenyl)cinnolin-7-yl]-2,6-diazaspiro[3.3]heptan-2-yl}-1,2,3-triazol-1-yl)-3-methylbutanoyl]pyrrolidine-2-carboxamide] | A (“A” indicates maximum degradation ≥75%)
> 75% | < 10 nM | > 10 nM | Cc1ncsc1-c1ccc([C@H](C)NC(=O)[C@@H]2C[C@@H](O)CN2C(=O)C(c2cc(N3CCC(C4CN(c5ccc6cc(-c7ccccc7O)nnc6c5)C4)CC3)no2)C(C)C)cc1 (stereo partly drawn) [Compound 225, (2S,4R)-4-hydroxy-1-(2-(3-(4-(1-(3-(2-hydroxyphenyl)cinnolin-7-yl)azetidin-3-yl)piperidin-1-yl)isoxazol-5-yl)-3-methylbutanoyl)-N-((S)-1-(4-(4-methylthiazol-5-yl)phenyl)ethyl)pyrrolidine-2-carboxamide] | A (“A” indicates maximum degradation ≥75%)
> 75% | < 10 nM | < 10 nM | Cc1ncsc1-c1ccc([C@H](C)NC(=O)[C@@H]2C[C@@H](O)CN2C(=O)[C@@H](c2cc(N3CC4=C(CN(c5ccc6cc(-c7ccccc7O)nnc6c5)C4)C3)no2)C(C)C)cc1 [Compound 228, (2S,4R)-4-hydroxy-1-((R)-2-(3-(5-(3-(2-hydroxyphenyl)cinnolin-7-yl)-3,4,5,6-tetrahydropyrrolo[3,4-c]pyrrol-2(1H)-yl)isoxazol-5-yl)-3-methylbutanoyl)-N-((S)-1-(4-(4-methylthiazol-5-yl)phenyl)ethyl)pyrrolidine-2-carboxamide] | A (“A” indicates maximum degradation ≥75%)
> 75% | < 10 nM | < 10 nM | Cc1ncsc1-c1ccc([C@H](C)NC(=O)[C@@H]2C[C@@H](O)CN2C(=O)[C@@H](c2cc(-c3cnc(N4CC5(CN(c6ccc7cc(-c8ccccc8O)nnc7c6)C5)C4)nc3)no2)C(C)C)cc1 [Compound 231, (2S,4R)-4-hydroxy-1-((R)-2-(3-(2-(6-(3-(2-hydroxyphenyl)cinnolin-7-yl)-2,6-diazaspiro[3.3]heptan-2-yl)pyrimidin-5-yl)isoxazol-5-yl)-3-methylbutanoyl)-N-((S)-1-(4-(4-methylthiazol-5-yl)phenyl)ethyl)pyrrolidine-2-carboxamide] | A (“A” indicates maximum degradation ≥75%)
